Laboratory results taken from PMC7615709 (Antiviral research, 2007).

Target: T1, FLAG-p7 (HCV p7, genotype 1b) (Hepatitis C virus isolate HC-J4, UniProt O92972)
T1 sequence (O92972 747-809 limits assumed): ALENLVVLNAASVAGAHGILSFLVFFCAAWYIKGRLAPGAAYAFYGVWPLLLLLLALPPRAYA
Assay: carboxyfluorescein release from liposomes, fluorimetry, initial rates
Format: biochemical

NC12CC3CC(CC(C3)C1)C2 [amantadine]
IC50: ~2000 nM
